In US12122854B2, “Graft copolymer and preparation method and use thereof” (ANHUI AGRICULTURAL UNIVERSITY, priority 2022, dated 2024):

How the values were obtained:
[1] = DPPH free radical scavenging rate; format: biochemical; conditions: 30 min
Procedure: The scavenging rate of EPSF-starch on DPPH free radicals was measured as follows: The N-ethyl-2-pyrrolidinone-substituted flavan-3-ol (EPSF) in Example 1 and EGCG in Comparative Example 1 were uniformly dispersed in methanol separately, obtaining dispersions with mass concentrations of 2 μg/mL, 4 μg/mL, 6 μg/mL, 8 μg/mL, 10 μg/mL and 12 μg/mL. The corn starch and EPSF-starch in Example 1, as well as the EGCG-starch in Comparative Example 1, were uniformly dispersed in methanol to obtain dispersions with mass concentrations of 0.156 mg/mL, 0.313 mg/mL, 0.625 mg/mL, 1.25 mg/mL, and 2.50 mg/mL. 2 mL of the above sample dispersions were pipetted in sequence into test tubes, and 2.0 mL of a DPPH solution (0.2 mmol/L, which was prepared with methanol) was added thereto, respectively. The resulting mixture was shaken well, and reacted at ambient temperature in dark for 30 minutes. The absorbance A1 thereof was then measured at 517 nm. Meanwhile, DPPH solution was replaced with an equal amount of methanol solution, and the absorbance A2 thereof was measured according to the above method. The absorbance A0 of a mixture of 2.0 mL of methanol and 2.0 mL of DPPH solution was measured. Experiments of each group were repeated three times, and the DPPH free radical scavenging rate of EPSF-starch was calculated according to Equation 1.
[formula] • where A0 represents the absorbance of the mixture of methanol and DPPH solution; A1 represents the absorbance of a mixture of the sample dispersion and DPPH free radical solution; and A2 represents the absorbance of a mixture of the sample dispersion and methanol.

[2] = ABTS free radical scavenging rate; format: biochemical; conditions: 5 min
Procedure: The ABTS free radical scavenging rate of EPSF-starch was measured as follows: 100 mg of ABTS and 34.4 mg of potassium persulfate were dissolved in 25 mL of distilled water. They were shaken well, and stored at ambient temperature in dark for 12-16 hours.
EPSFs in Example 1 and EGCG in Comparative Example 1 were dispersed uniformly in methanol, obtaining dispersions with mass concentrations of 2 μg/mL, 4 μg/mL, 6 μg/mL, 8 μg/mL, 10 μg/mL and 12 μg/mL. The corn starch and EPSF-starch in Example 1, as well as the EGCG-starch in Comparative Example 1, were uniformly dispersed in methanol obtaining dispersions with mass concentrations of 0.156 mg/mL, 0.313 mg/mL, 0.625 mg/mL, 1.25 mg/mL, and 2.50 mg/mL. 1.0 mL of the above sample solutions and 3.0 mL of the ABTS free radical working solution were added to the test tube in sequence, and they were shaken well, and reacted at ambient temperature in dark for 5 minutes. The absorbance A1 thereof was measured at 734 nm. The sample solutions were replaced with methanol and the absorbance A0 thereof was measured according to the above method. EGCG, starch, and EGCG-starch functioned as control groups, and the ABTS free radical scavenging rates thereof were determined according to the above method. Experiment of each group was repeated three times, and the ABTS free radical scavenging rate of each sample was calculated according to Equation 2.
[formula] • where A0 represents the absorbance of a mixture of the sample dispersion and methanol; and A1 represents the absorbance of the sample dispersion and ABTS radical solution.

In the case of epigallocatechin-3-gallate [EGCG], the “DPPH free radical scavenging rate” value ([1]; sample concentration 2 μg/ml in methanol) is reported as 21.57 ± 0.04%, the “DPPH free radical scavenging rate” value ([1]; sample concentration 4 μg/ml in methanol) is reported as 50.98 ± 0.25% and the “DPPH free radical scavenging rate” value ([1]; sample concentration 6 μg/ml in methanol) is reported as 67.85 ± 4%. The “DPPH free radical scavenging rate” value ([1]; sample concentration 8 μg/ml in methanol) was 88.44 ± 0.27%, the “DPPH free radical scavenging rate” value ([1]; sample concentration 10 μg/ml in methanol) was 85.67 ± 2.01% and the “DPPH free radical scavenging rate” value ([1]; sample concentration 12 μg/ml in methanol) was 87.39 ± 2.62%. For the same substance, the “DPPH free radical scavenging rate” value ([1]; sample concentration 2.5 mg/ml in methanol) was 90%, the “ABTS free radical scavenging rate” value ([2]; sample concentration 2 μg/mL in methanol) was 51.91 ± 2.1% and the “ABTS free radical scavenging rate” value ([2]; sample concentration 4 μg/mL in methanol) was 78.8 ± 1.73%. For the same substance, the “ABTS free radical scavenging rate” value ([2]; sample concentration 6 μg/mL in methanol) was 91.49 ± 1.23%, the “ABTS free radical scavenging rate” value ([2]; sample concentration 8 μg/mL in methanol) was 94.38 ± 2.07% and the “ABTS free radical scavenging rate” value ([2]; sample concentration 10 μg/mL in methanol) was 95.17 ± 1.8%. The “ABTS free radical scavenging rate” value ([2]; sample concentration 12 μg/mL in methanol) was 95.24 ± 1.69%.
